Where no end group is shown, it is not given here.
Experiments:
[1] = biological target: T1, CMG helicase (Xenopus laevis, UniProt Q91876); assay: S phase arrested Xenopus egg extracts, chromatin RPA Western blot as readout for DNA helicase activity; assay type: biochemical; conditions: 250 μM peptide, 90 min incubation
T1 construct: from tissue; host or cells: S phase arrested Xenopus egg extracts (endogenous proteins on chromatin)
Description: The peptide of SEQ ID NO: 1 was synthesized using solid-phase synthesis. The product was purified using HPLC to a purity of about 99%. 250 μM of peptide Ex7 ([…]) (SEQ ID NO: 8), peptide 7N (circularized—KGEVLQMEDDLV) (SEQ ID NO: 9), peptide 7M (ISFQLMLCVLDYF) (SEQ ID NO: 1), or peptide 7C (IKLSPPMLLKEPYK) (SEQ ID NO: 10) were incubated in S phase arrested Xenopus egg extracts. Following a 90 min incubation, chromatin was isolated and probed by Western blotting for RPA protein as a readout for DNA helicase activity. Additionally, peptide 7MN (ISFQLML) (SEQ ID NO: 5), peptide 7MM (QLMLCVL) (SEQ ID NO: 2), and peptide 7MC (LCVLDYF) (SEQ ID NO: 6) were tested.
250 μM of each of peptides 7α (DLVISFQLMLCVLDYFIK) (SEQ ID NO: 14), 7α-ln (LVISFQLMLCVLDYFIK) (SEQ ID NO: 22), 7α-2n (VISFQLMLCVLDYFIK) (SEQ ID NO: 23), 7α-3n (ISFQLMLCVLDYFIK) (SEQ ID NO: 24), 7α-4n (SFQLMLCVLDYFIK) (SEQ ID NO: 25), 7α-5n (FQLMLCVLDYFIK) (SEQ ID NO: 26), 7α-6n (QLMLCVLDYFIK) (SEQ ID NO: 27), 7α-7n (LMLCVLDYFIK) (SEQ ID NO: 28), 7α-17c (DLVISFQLMLCVLDYF) (SEQ ID NO: 29), 7α-16c (DLVISFQLMLCVLDY) (SEQ ID NO: 30), 7α-15c (DVISFQLMLCVLD) (SEQ ID NO: 31), 7α-14c (DVISFQLMLCVL) (SEQ ID NO: 32), 7α-11c (DVISFQLML) (SEQ ID NO: 33) was incubated in S phase arrested Xenopus egg extracts. Following a 90 min incubation, chromatin was isolated and probed by Western blotting for RPA protein as a readout for DNA helicase activity.

[2] = system: BT-549 breast cancer cells
Description: The effect of Peptides 7M and 7MM on BT-549 breast cancer cells (ATCC #HTB-122) was studied. Pierce Protein Transfection reagent (Thermo Scientific, 89850) was used to deliver peptide to the cultured cells. BT-549 breast cancer cells were transfected with 0.625-20 μM Peptide 7M or 1.25-10 μM Peptide 7MM for 3.5 hrs, incubated in a complete media for a duration of two doubling times (96 hours), and assessed for viability by using a CCK-8 colorimetric assay.
(§1) IC50 values were calculated from obtained equations that describe cell viability as a function of peptide concentration.

[3] = system: HMEC primary mammary epithelial normal cells
Description: HMEC mammary epithelial cells (ATCC #PCS-600-010) were transfected with 1.25-20 μM peptide 7α for 3.5 hrs, incubated in a complete media for a duration of two doubling times, and assessed for viability by using a CCK-8 colorimetric assay (Dojindo Molecular Technologies, Inc.).
HMEC primary normal epithelial breast cells (ATCC #PCS-600-010) were transfected with 1.25-10 μM peptide 7MM for 3.5 hrs, incubated in a complete media for a duration of two doubling times, and assessed for viability by using a CCK-8 colorimetric assay (Dojindo Molecular Technologies, Inc.).
as §1

[4] = system: M059J glioma cancer cells
Description: (§2) Pierce Protein Transfection reagent (Thermo Scientific, 89850) was used to deliver peptide to the cultured cells.
M059J glioma cancer cells (ATCC #CRL-2366) were transfected with 1.25-10 μM peptide 7α for 3.5 hrs, incubated in a complete media for a duration of two doubling times, and assessed for viability by using a CCK-8 colorimetric assay (Dojindo Molecular Technologies, Inc.).
M059J glioma cancer cells (ATCC #CRL-2366) were transfected with 1.25-10 μM peptide 7MM for 3.5 hrs, incubated in a complete media for a duration of two doubling times, and assessed for viability by using a CCK-8 colorimetric assay (Dojindo Molecular Technologies, Inc.).
as §1

[5] = system: SVG p12 immortalized astroglia cells
Description: as §1

[6] = system: HepG2 liver cancer cells
Description: as §2, §1

[7] = system: THLE-3 immortalized normal liver cells
Description: as §1

[8] = system: A549 lung cancer cells
Description: as §1

[9] = system: H596 lung cancer cells
Description: as §1

[10] = system: HLF normal primary lung fibroblasts
Description: The effect of peptide 7α of viability of HLF normal primary lung fibroblasts was studied. HLF normal primary lung fibroblasts (ATCC #PCS-201-013) were transfected with 1.25-10 μM peptide 7α for 3.5 hrs, incubated in a complete media for a duration of two doubling times, and assessed for viability by using a CCK-8 colorimetric assay (Dojindo Molecular Technologies, Inc.).
The effect of peptide 7MM of viability of normal lung cells was studied. HLF normal primary lung fibroblasts (ATCC #PC S-201-013) were transfected with 1.25-10 μM peptide 7MM for 3.5 hrs, incubated in a complete media for a duration of two doubling times, and assessed for viability by using a CCK-8 colorimetric assay (Dojindo Molecular Technologies, Inc.).
as §1

[11] = system: PANC-1 pancreatic cancer cells
Description: The effect of Peptides 7M and 7MM on PANC-1 pancreatic cancer cells (ATCC #CRL-1469) was studied. Pierce Protein Transfection reagent (Thermo Scientific, 89850) was used to deliver peptide to the cultured cells. PANC-1 pancreatic cancer cells were transfected with 0.625-10 μM Peptide 7M or Peptide 7MM for 3.5 hrs, incubated in a complete media for a duration of two doubling times (48 hours), and assessed for viability by using a CCK-8 colorimetric assay.
The effect of peptide 7α of viability of pancreatic cancer cells was studied. PANC-1 pancreatic cancer cells (ATCC #CRL-1469) were transfected with 1.25-10 μM peptide 7α for 3.5 hrs, incubated in a complete media for a duration of two doubling times, and assessed for viability by using a CCK-8 colorimetric assay (Dojindo Molecular Technologies, Inc.).
as §1

[12] = system: Hs 766T pancreatic cancer cells
Description: as §1

[13] = system: hTERT-HPNE immortalized normal pancreatic cells
Description: as §1

[14] = system: DU145 prostate cancer cells
Description: DU145 prostate cancer cells (ATCC #HTB-81) were transfected with 1.25-10 μM peptide 7α for 3.5 hrs, incubated in a complete media for a duration of two doubling times, and assessed for viability by using a CCK-8 colorimetric assay (Dojindo Molecular Technologies, Inc.).
DU145 prostate cancer cells (ATCC #HTB-81) were transfected with 1.25-10 μM peptide 7MM for 3.5 hrs, incubated in a complete media for a duration of two doubling times, and assessed for viability by using a CCK-8 colorimetric assay (Dojindo Molecular Technologies, Inc.).
as §1

[15] = system: PC3 prostate cancer cells
Description: The effect of peptide 7α of viability of prostate cancer cells was studied. PC3 prostate cancer cells (ATCC #CRL-1435) were transfected with 1.25-10 μM peptide 7α for 3.5 hrs, incubated in a complete media for a duration of two doubling times, and assessed for viability by using a CCK-8 colorimetric assay (Dojindo Molecular Technologies, Inc.).
The effect of peptide 7MM of viability of prostate cancer cells was studied. PC3 prostate cancer cells (ATCC #CRL-1435) were transfected with 1.25-10 μM peptide 7MM for 3.5 hrs, incubated in a complete media for a duration of two doubling times, and assessed for viability by using a CCK-8 colorimetric assay (Dojindo Molecular Technologies, Inc.).
as §1

[16] = system: HCT-116 colorectal cancer cells
Description: The effect of peptide 7MM of viability of colorectal cancer cells was studied. HCT-116 colorectal cancer cells (ATCC #CCL-247) were transfected with 1.25-10 μM peptide 7MM for 3.5 hrs, incubated in a complete media for a duration of two doubling times, and assessed for viability by using a CCK-8 colorimetric assay (Dojindo Molecular Technologies, Inc.).
as §1

[17] = system: U-2 OS osteosarcoma cancer cells
Description: as §1

[18] = system: HT1080 fibrosarcoma cancer cells
Description: as §1

[19] = transfected 1.25-10 μM for 3.5 hrs, two doubling times, CCK-8
[20] = transfected 1.25-20 μM for 3.5 hrs, two doubling times, CCK-8

## DLVISFQLMLCVLDYFIK [7α, DLVISFQLMLCVLDYFIK]
[1]
  inhibition of CMG helicase in vitro (chromatin RPA Western blot): inhibit CMG helicase in vitro
[2]; 96 h
  IC50: 4.6 µM
[2]; [19]
  effect on viability of BT-549 breast cancer cells: decreases viability
[3]
  IC50: 115 µM
[3]; [20]
  effect on viability of HMEC normal mammary epithelial cells: does not affect viability
[4]; 48 h
  IC50: 7.1 µM
[4]; [19]
  effect on viability of M059J glioma cells: decreases viability
[5]
  IC50: 113 µM
[5]; [20]
  effect on viability of SVG p12 normal brain cells: does not affect viability
[6]; 96 h
  IC50: 3.7 µM
[6]; transfected 1.25-5 μM for 3.5 hrs, two doubling times, CCK-8
  effect on viability of HepG2 liver cancer cells: decreases viability
[7]
  IC50: 119 µM
[7]; [19]
  effect on viability of THLE-3 normal liver cells: does not affect viability
[8]
  IC50: 16.5 µM
[8]; [19]
  effect on viability of A549 lung cancer cells: decreases viability
[9]
  IC50: 7.5 µM
[9]; [19]
  effect on viability of H596 lung cancer cells: decreases viability
[10]
  IC50: 225 µM
[10]; [19]
  effect on viability of HLF normal primary lung fibroblasts: does not affect viability
[11]; 48 h
  IC50: 6.4 µM
[11]; [19]
  effect on viability of PANC-1 pancreatic cancer cells: decreases viability
[12]
  IC50: 7.4 µM
[12]; [19]
  effect on viability of Hs 766T pancreatic cancer cells: decreases viability
[13]
  IC50: 366 µM
[13]; [19]
  effect on viability of hTERT-HPNE normal pancreatic cells: does not affect viability
[14]
  IC50: 10.3 µM
[14]; [19]
  effect on viability of DU145 prostate cancer cells: decreases viability
[15]
  IC50: 9.6 µM
[15]; [19]
  effect on viability of PC3 prostate cancer cells: decreases viability
[16]
  IC50: 9.5 µM
[16]; [19]
  effect on viability of HCT-116 colorectal cancer cells: decreases viability
[17]
  IC50: 14.5 µM
[17]; [19]
  effect on viability of U-2 OS osteosarcoma cancer cells: decreases viability
[18]
  IC50: 4.4 µM
[18]; [19]
  effect on viability of HT1080 fibrosarcoma cancer cells: decreases viability
